{
  "source": "patent US20060276393A1",
  "about": "“Novel compositions for preventing and treating neurodegenerative and blood coagulation disorders” (Sirtris Pharmaceuticals, Inc., priority 2005, published 2006)",
  "key": {"[1]": {"system": "Experimental autoimmune encephalomyelitis (EAE) in SJL/J mice", "details": "for Mean total EAE score: 30 days from day 11, vehicle 72.38; for Mean EAE Score - Last 10 Days: vehicle 23.00"}, "[2]": {"system": "Human 293", "experiment": "Survival of 293 cells", "details": "50 micromolar"}, "[3]": {"system": "S. cerevisiae", "experiment": "Yeast replicative lifespan", "assay_type": "cell-based", "details": "for Average lifespan, growth on resveratrol: wild type untreated 21.0"}, "[4]": {"target": "T1, recombinant human SIRT1 (Homo sapiens, UniProt Q96EB6)", "T1 sequence (Q96EB6 1-747)": "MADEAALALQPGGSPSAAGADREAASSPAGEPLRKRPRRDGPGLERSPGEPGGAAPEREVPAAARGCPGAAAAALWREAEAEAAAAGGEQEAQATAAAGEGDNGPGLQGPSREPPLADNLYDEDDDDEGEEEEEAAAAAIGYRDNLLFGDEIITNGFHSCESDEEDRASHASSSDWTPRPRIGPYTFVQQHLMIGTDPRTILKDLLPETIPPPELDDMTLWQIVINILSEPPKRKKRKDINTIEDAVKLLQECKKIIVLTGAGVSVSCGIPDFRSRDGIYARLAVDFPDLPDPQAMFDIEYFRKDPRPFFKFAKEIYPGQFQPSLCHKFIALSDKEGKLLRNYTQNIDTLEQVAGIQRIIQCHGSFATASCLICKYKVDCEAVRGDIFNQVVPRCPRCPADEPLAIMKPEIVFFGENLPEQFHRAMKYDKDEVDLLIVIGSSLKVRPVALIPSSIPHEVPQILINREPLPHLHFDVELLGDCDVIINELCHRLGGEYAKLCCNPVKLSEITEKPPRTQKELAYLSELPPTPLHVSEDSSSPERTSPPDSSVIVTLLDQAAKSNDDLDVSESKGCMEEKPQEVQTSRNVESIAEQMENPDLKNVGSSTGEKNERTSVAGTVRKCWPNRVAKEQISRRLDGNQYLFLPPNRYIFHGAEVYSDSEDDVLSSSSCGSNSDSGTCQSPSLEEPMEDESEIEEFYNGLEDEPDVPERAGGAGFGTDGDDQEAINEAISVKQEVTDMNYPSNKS", "experiment": "SIRT1 fluorescent deacetylation assay (p53-382 acetylated peptide)", "assay_type": "biochemical"}, "[5]": {"system": "S. cerevisiae", "experiment": "Yeast chronological lifespan", "assay_type": "cell-based", "details": "10 μM or 100 μM, nutrient deprived state"}, "[6]": {"details": "25 μM NAD+, 25 μM p53-382 acetylated peptide"}},
  "note": "Where two headings read alike, the source gives them in different places.",
  "data": [
    {"smiles": "Oc1ccc(/C=C/c2cc(O)cc(O)c2)cc1", "note": "[Resveratrol, 3,5,4′-Trihydroxy-trans-stilbene]", "values": [
      {"measurement": "clinical course", "setting": "[1]; high dose resveratrol 400 mg/kg/day", "result": "not different from controls"},
      {"measurement": "peak and overall disease level", "setting": "[1]; low dose resveratrol 200 mg/kg/day", "result": "slightly higher than controls"},
      {"measurement": "Mean total EAE score", "setting": "[1]; resveratrol 200 mg/kg/day IP", "result": 94.00},
      {"measurement": "Mean EAE Score - Last 10 Days", "setting": "[1]; resveratrol 200 mg/kg/day IP", "result": 28.63},
      {"measurement": "Mean total EAE score", "setting": "[1]; resveratrol 400 mg/kg/day IP", "result": 73.00},
      {"measurement": "Mean EAE Score - Last 10 Days", "setting": "[1]; resveratrol 400 mg/kg/day IP", "result": 21.88},
      {"measurement": "Survival of 293 cells", "setting": "[2]; 0 h", "result": 100, "unit": "%"},
      {"measurement": "Survival of 293 cells", "setting": "[2]; 48 h", "result": 5, "unit": "%"},
      {"measurement": "Survival of 293 cells", "setting": "[2]; 96 h", "result": 0, "unit": "%"},
      {"measurement": "increase of average lifespan", "setting": "[3]; 10 μM", "result": 70, "unit": "%"},
      {"measurement": "maximum lifespan (in words)", "setting": "[3]; 10 μM", "result": "significantly increased maximum lifespan"},
      {"measurement": "Average lifespan", "setting": "[3]; 10 μM compound, 2% glucose medium, wild type untreated 22.9", "result": 36.8, "unit": "generations"},
      {"measurement": "Average lifespan, growth on resveratrol", "setting": "[3]; 10 μM", "result": 35.7, "unit": "generations"},
      {"measurement": "Average lifespan, growth on resveratrol", "setting": "[3]; 100 μM", "result": 29.4, "unit": "generations"},
      {"measurement": "Average lifespan, growth on resveratrol", "setting": "[3]; 500 μM", "result": 29.3, "unit": "generations"},
      {"measurement": "Average lifespan, glucose-restricted+resveratrol (CR+R)", "setting": "[3]; glucose restriction", "result": 39.9, "unit": "generations"},
      {"measurement": "Average lifespan, pnc1Δ+resveratrol", "setting": "[3]; pnc1Δ untreated 19.2", "result": 33.1, "unit": "generations"},
      {"measurement": "Average lifespan, sir2Δ+resveratrol", "setting": "[3]; sir2Δ untreated 9.9", "result": 10.0, "unit": "generations"},
      {"measurement": "Average lifespan, wild type+resveratrol (wt+R)", "setting": "[3]; wild type untreated 19.0", "result": 37.8, "unit": "generations"},
      {"measurement": "apparent Km for NAD+ and acetylated substrate in presence of nicotinamide", "setting": "[4]; 5 μM resveratrol, 50 μM nicotinamide", "result": "raised"},
      {"measurement": "concentration at which the activating effect doubled the rate", "setting": "[4]; [6]", "result": "~11", "unit": "µM"},
      {"measurement": "concentration at which the activating effect was essentially saturated", "setting": "[4]; [6]", "result": 100, "unit": "µM"},
      {"measurement": "SIRT1 stimulating activity (in words)", "setting": "[4]; 25 μM NAD+, 25 μM p53-382 acetylated peptide, compounds at 100 μM", "result": "most active compound overall"},
      {"measurement": "effect on the two Vmax determinations", "setting": "[4]; 100 μM resveratrol", "result": "no significant effect"},
      {"measurement": "lowering of Km for NAD+", "setting": "[4]; 100 μM resveratrol, 1 mM acetylated peptide", "result": "over 5 fold"},
      {"measurement": "Vmax (+resveratrol), NAD+ varied", "setting": "[4]; 100 μM resveratrol, 1 mM p53-382 acetylated peptide", "result": 1749, "unit": "AFU/min."},
      {"measurement": "Vmax (+resveratrol), acetylated peptide varied", "setting": "[4]; 100 μM resveratrol, 3 mM NAD+", "result": 926, "unit": "AFU/min."},
      {"measurement": "decrease of acetylated peptide Km", "setting": "[4]; 100 μM resveratrol, 3 mM NAD+", "result": 35, "unit": "fold"},
      {"measurement": "Km for NAD+ and acetylated peptide in presence of nicotinamide", "setting": "[4]; 20 and 100 μM resveratrol, 50 μM nicotinamide", "result": "lowers the Km for both NAD^+ and acetylated peptide"},
      {"measurement": "Km", "setting": "[4]; read-out: Km for NAD+ (+resveratrol), 100 μM resveratrol, 1 mM p53-382 acetylated peptide", "result": 101, "unit": "µM"},
      {"measurement": "Km", "setting": "[4]; read-out: Km for p53-382 acetylated peptide (+resveratrol), 100 μM resveratrol, 3 mM NAD+", "result": 1.8, "unit": "µM"},
      {"measurement": "chronological lifespan", "setting": "[5]", "result": "failed to extend chronological lifespan"}
    ]}
  ]
}
